Source: PubChem BioAssay (NCI)
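All cell lines were grown in 96-well plates and treated with compound for 48 hours. TGI denotes the concentration required for complete inhibition of growth.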

What was measured:
Assay in all cases: growth of human tumour cells (NCI), 48 h
HCC-2998 colon = system: HCC-2998 colon
MCF7 breast = system: MCF7 breast
MDA-MB-435 = system: MDA-MB-435
UO-31 renal = system: UO-31 renal
ACHN renal = system: ACHN renal
SNB-19 CNS = system: SNB-19 CNS
UACC-257 melanoma = system: UACC-257 melanoma
PC-3 prostate = system: PC-3 prostate
HOP-92 NSCLC = system: HOP-92 NSCLC
CCRF-CEM leukemia = system: CCRF-CEM leukemia
HCT-116 colon = system: HCT-116 colon
TK-10 renal = system: TK-10 renal
SNB-75 CNS = system: SNB-75 CNS
SK-MEL-2 melanoma = system: SK-MEL-2 melanoma
NCI-H226 lung = system: NCI-H226 lung
NCI-H460 lung = system: NCI-H460 lung
NCI/ADR-RES ovarian = system: NCI/ADR-RES ovarian
RXF 393 renal = system: RXF 393 renal
K-562 leukemia = system: K-562 leukemia
M14 melanoma = system: M14 melanoma
HS 578T breast = system: HS 578T breast
NCI-H23 lung = system: NCI-H23 lung
SW-620 colon = system: SW-620 colon
HOP-62 NSCLC = system: HOP-62 NSCLC
HCT-15 colon = system: HCT-15 colon
NCI-H522 lung = system: NCI-H522 lung
SK-MEL-28 melanoma = system: SK-MEL-28 melanoma
SK-OV-3 ovarian = system: SK-OV-3 ovarian
OVCAR-8 ovarian = system: OVCAR-8 ovarian
SK-MEL-5 melanoma = system: SK-MEL-5 melanoma
MDA-N = system: MDA-N
EKVX NSCLC = system: EKVX NSCLC
CAKI-1 renal = system: CAKI-1 renal
SR leukemia = system: SR leukemia
U251 CNS = system: U251 CNS
KM12 colon = system: KM12 colon
SF-268 CNS = system: SF-268 CNS
IGROV1 ovarian = system: IGROV1 ovarian
DU-145 prostate = system: DU-145 prostate
SN12C renal = system: SN12C renal
MOLT-4 leukemia = system: MOLT-4 leukemia
OVCAR-5 ovarian = system: OVCAR-5 ovarian
MALME-3M melanoma = system: MALME-3M melanoma
BT-549 breast = system: BT-549 breast
OVCAR-4 ovarian = system: OVCAR-4 ovarian
SF-295 CNS = system: SF-295 CNS
786-0 renal = system: 786-0 renal
MDA-MB-231 breast = system: MDA-MB-231 breast
OVCAR-3 ovarian = system: OVCAR-3 ovarian
COLO 205 colon = system: COLO 205 colon
A549 NSCLC = system: A549 NSCLC
A498 renal = system: A498 renal
LOX IMVI melanoma = system: LOX IMVI melanoma
HT29 colon = system: HT29 colon
T-47D breast = system: T-47D breast
UACC-62 melanoma = system: UACC-62 melanoma
RPMI-8226 leukemia = system: RPMI-8226 leukemia
SF-539 CNS = system: SF-539 CNS
HL-60(TB) leukemia = system: HL-60(TB) leukemia

In the case of `CCCCCCCCC/C=C1\CC(CO)(COC(=O)C2CCCCC2)OC1=O` (stereo unspecified), the TGI (HCC-2998 colon) is reported as 42.3 µM, the TGI (MCF7 breast) is reported as 43.9 µM and the TGI (MDA-MB-435) is reported as 34.4 µM. It also gave a TGI (UO-31 renal) of 55.8 µM, a TGI (ACHN renal) of 69.1 µM and a TGI (SNB-19 CNS) of 40.9 µM. The TGI (UACC-257 melanoma) was 87.4 µM, the TGI (PC-3 prostate) was 40.4 µM and the TGI (HOP-92 NSCLC) was 22.2 µM. It also gave a TGI (CCRF-CEM leukemia) of 63.2 µM, a TGI (HCT-116 colon) of 44.5 µM and a TGI (TK-10 renal) of 49.8 µM. For the same molecule, the TGI (SNB-75 CNS) was 32.9 µM, the TGI (SK-MEL-2 melanoma) was 43.1 µM and the TGI (NCI-H226 lung) was 74.4 µM. The TGI (NCI-H460 lung) was 57.1 µM, the TGI (NCI/ADR-RES ovarian) was 38.1 µM and the TGI (RXF 393 renal) was 38.7 µM. It also gave a TGI (K-562 leukemia) greater than 100 µM, a TGI (M14 melanoma) of 55.9 µM and a TGI (HS 578T breast) of 41 µM. It also gave a TGI (NCI-H23 lung) of 47 µM, a TGI (SW-620 colon) of 33.1 µM and a TGI (HOP-62 NSCLC) of 27.9 µM. The TGI (HCT-15 colon) was 41.7 µM, the TGI (NCI-H522 lung) was 34.6 µM and the TGI (SK-MEL-28 melanoma) was 30.5 µM. The TGI (SK-OV-3 ovarian) was 70.8 µM, the TGI (OVCAR-8 ovarian) was 29.2 µM and the TGI (SK-MEL-5 melanoma) was 27.3 µM. For the same molecule, the TGI (MDA-N) was 38.8 µM, the TGI (EKVX NSCLC) was 39.1 µM and the TGI (CAKI-1 renal) was 49.3 µM. For the same molecule, the TGI (SR leukemia) was greater than 100 µM, the TGI (U251 CNS) was 42.6 µM and the TGI (KM12 colon) was 38.9 µM. For the same molecule, the TGI (SF-268 CNS) was 46.7 µM, the TGI (IGROV1 ovarian) was 37.7 µM and the TGI (DU-145 prostate) was 21.5 µM. It also gave a TGI (SN12C renal) of 35.2 µM, a TGI (MOLT-4 leukemia) of 57.6 µM and a TGI (OVCAR-5 ovarian) of 38 µM. The TGI (MALME-3M melanoma) was 31.9 µM, the TGI (BT-549 breast) was 36.2 µM and the TGI (OVCAR-4 ovarian) was 49.3 µM. The TGI (SF-295 CNS) was 34.1 µM, the TGI (786-0 renal) was 32.1 µM and the TGI (MDA-MB-231 breast) was 44.8 µM. The TGI (OVCAR-3 ovarian) was 33.4 µM, the TGI (COLO 205 colon) was 30.9 µM and the TGI (A549 NSCLC) was 48.3 µM. The TGI (A498 renal) was 50.6 µM, the TGI (LOX IMVI melanoma) was 24 µM and the TGI (HT29 colon) was 42 µM. The TGI (T-47D breast) was 51.7 µM and the TGI (UACC-62 melanoma) was 46.9 µM.
Work on `COC1=C(N2CC2)C(=O)c2nc3n(c2C1=O)CCC3` yielded a TGI (HCC-2998 colon) of 2.44 µM, a TGI (MCF7 breast) of 4.08 µM and a TGI (MDA-MB-435) of 3.32 µM. The TGI (ACHN renal) was 0.851 µM, the TGI (SNB-19 CNS) was 2.92 µM and the TGI (RPMI-8226 leukemia) was 0.336 µM. The TGI (PC-3 prostate) was 5.27 µM, the TGI (HOP-92 NSCLC) was 7.74 µM and the TGI (CCRF-CEM leukemia) was 1.33 µM. For the same molecule, the TGI (HCT-116 colon) was 1.93 µM, the TGI (TK-10 renal) was 7.08 µM and the TGI (SNB-75 CNS) was 3.57 µM. For the same molecule, the TGI (NCI-H226 lung) was 4.76 µM, the TGI (NCI-H460 lung) was 2.42 µM and the TGI (NCI/ADR-RES ovarian) was 3.53 µM. It also gave a TGI (RXF 393 renal) of 0.261 µM, a TGI (M14 melanoma) of 0.619 µM and a TGI (HS 578T breast) of 31.3 µM. The TGI (NCI-H23 lung) was 2.34 µM, the TGI (SW-620 colon) was 2.19 µM and the TGI (HOP-62 NSCLC) was 2.34 µM. It also gave a TGI (HCT-15 colon) of 1.55 µM, a TGI (NCI-H522 lung) of 0.385 µM and a TGI (SK-MEL-28 melanoma) of 12.2 µM. The TGI (SK-OV-3 ovarian) was 3.04 µM, the TGI (OVCAR-8 ovarian) was 4.7 µM and the TGI (SK-MEL-5 melanoma) was 2.56 µM. The TGI (MDA-N) was 2.89 µM, the TGI (SR leukemia) was 16.9 µM and the TGI (U251 CNS) was 2.86 µM. It also gave a TGI (KM12 colon) of 3.11 µM, a TGI (SF-268 CNS) of 5.23 µM and a TGI (IGROV1 ovarian) of 3.15 µM. For the same molecule, the TGI (DU-145 prostate) was 1.36 µM, the TGI (SN12C renal) was 2.95 µM and the TGI (SF-539 CNS) was 7.79 µM. For the same molecule, the TGI (MOLT-4 leukemia) was 2.41 µM, the TGI (HL-60(TB) leukemia) was 0.595 µM and the TGI (OVCAR-5 ovarian) was 3.46 µM. It also gave a TGI (MALME-3M melanoma) of 0.827 µM, a TGI (BT-549 breast) of 2.39 µM and a TGI (OVCAR-4 ovarian) of 0.526 µM. It also gave a TGI (SF-295 CNS) of 2.07 µM, a TGI (786-0 renal) of 1.03 µM and a TGI (MDA-MB-231 breast) of 6.28 µM. The TGI (OVCAR-3 ovarian) was 10.7 µM, the TGI (COLO 205 colon) was 2.13 µM and the TGI (A549 NSCLC) was 6.47 µM. It also gave a TGI (A498 renal) of 2.86 µM, a TGI (LOX IMVI melanoma) of 2.15 µM and a TGI (HT29 colon) of 1.57 µM. It also gave a TGI (T-47D breast) of 4.15 µM and a TGI (UACC-62 melanoma) of 3.12 µM.
With `CC(=O)OCC1OC(N2C(C)=C(C(C)=O)C(c3ccco3)C(C#N)=C2S)C(OC(C)=O)C(OC(C)=O)C1OC(C)=O` (stereo unspecified) the TGI (HCC-2998 colon) was greater than 100 µM, the TGI (MCF7 breast) was greater than 100 µM and the TGI (MDA-MB-435) was greater than 100 µM. For the same molecule, the TGI (UO-31 renal) was greater than 100 µM, the TGI (ACHN renal) was greater than 100 µM and the TGI (SNB-19 CNS) was greater than 100 µM. The TGI (RPMI-8226 leukemia) was greater than 100 µM, the TGI (UACC-257 melanoma) was greater than 100 µM and the TGI (PC-3 prostate) was greater than 100 µM. The TGI (HOP-92 NSCLC) was greater than 100 µM, the TGI (CCRF-CEM leukemia) was greater than 100 µM and the TGI (HCT-116 colon) was greater than 100 µM. For the same molecule, the TGI (TK-10 renal) was greater than 100 µM, the TGI (SNB-75 CNS) was greater than 100 µM and the TGI (SK-MEL-2 melanoma) was greater than 100 µM. It also gave a TGI (NCI-H226 lung) greater than 100 µM, a TGI (NCI-H460 lung) greater than 100 µM and a TGI (NCI/ADR-RES ovarian) greater than 100 µM. The TGI (RXF 393 renal) was greater than 100 µM, the TGI (K-562 leukemia) was greater than 100 µM and the TGI (M14 melanoma) was greater than 100 µM. For the same molecule, the TGI (HS 578T breast) was greater than 100 µM, the TGI (NCI-H23 lung) was greater than 100 µM and the TGI (SW-620 colon) was greater than 100 µM. The TGI (HOP-62 NSCLC) was greater than 100 µM, the TGI (HCT-15 colon) was greater than 100 µM and the TGI (NCI-H522 lung) was greater than 100 µM. It also gave a TGI (SK-MEL-28 melanoma) greater than 100 µM, a TGI (OVCAR-8 ovarian) greater than 100 µM and a TGI (SK-MEL-5 melanoma) greater than 100 µM. It also gave a TGI (MDA-N) greater than 100 µM, a TGI (CAKI-1 renal) greater than 100 µM and a TGI (SR leukemia) greater than 100 µM. For the same molecule, the TGI (U251 CNS) was greater than 100 µM, the TGI (KM12 colon) was greater than 100 µM and the TGI (SF-268 CNS) was greater than 100 µM. The TGI (IGROV1 ovarian) was greater than 100 µM, the TGI (DU-145 prostate) was greater than 100 µM and the TGI (SN12C renal) was greater than 100 µM. The TGI (SF-539 CNS) was greater than 100 µM, the TGI (MOLT-4 leukemia) was greater than 100 µM and the TGI (HL-60(TB) leukemia) was greater than 100 µM. The TGI (OVCAR-5 ovarian) was greater than 100 µM, the TGI (MALME-3M melanoma) was greater than 100 µM and the TGI (BT-549 breast) was greater than 100 µM. For the same molecule, the TGI (OVCAR-4 ovarian) was greater than 100 µM, the TGI (SF-295 CNS) was greater than 100 µM and the TGI (786-0 renal) was greater than 100 µM. It also gave a TGI (MDA-MB-231 breast) greater than 100 µM, a TGI (OVCAR-3 ovarian) greater than 100 µM and a TGI (COLO 205 colon) greater than 100 µM. For the same molecule, the TGI (A549 NSCLC) was greater than 100 µM, the TGI (A498 renal) was greater than 100 µM and the TGI (LOX IMVI melanoma) was greater than 100 µM. The TGI (HT29 colon) was greater than 100 µM, the TGI (T-47D breast) was greater than 100 µM and the TGI (UACC-62 melanoma) was greater than 100 µM.
